Measurements: US9434719B2, “3-pyrimidin-4-yl-oxazolidin-2-ones as inhibitors of mutant IDH” (NOVARTIS AG, priority 2013, dated 2016)
Structures can show the parent of a compound that is named as a salt.

Experiments:
Assay type in all cases: in vitro ADME
[1] = Metabolic stability in liver microsomes, Method I, rat; conditions: 1 μM test compound; for microsomal CLint at 1 μM: male, Sprague-Dawley, liver microsomes; for microsomal CLint at 1 μM / microsomal CLint: rat; for microsomal CLint: microsomes
Description: (§10) The in vitro metabolic stability assay was performed in a 96-well glass plate with shaking incubation at 37° C. A 10 mM DMSO stock solution of the test compound was sequentially diluted 1:1000 to yield a final reaction concentration of 1 μM in 50 mM KPi. […] 30 μL of the 10 μM solution containing the test compound was added to 120 μL of microsomal protein for 150 μL enzyme-compound mixture. The reaction was initiated by adding 150 μL of cofactor solution (2 mM NADPH, 4 mM MgCl in 50 mM KPi) to the enzyme-compound mixture, and the final reaction concentrations are listed in the table below.
(§11) At 0, 5, 10 and 30 minute time points in the reaction, reaction aliquots (50 μL) were removed and the reactions were terminated by the addition of acetonitrile (150 μL) containing a mass spectrometry internal standard (1 μM glyburide). The samples were centrifuged and the supernatants analyzed by LC-MS/MS for quantization of remaining compound.
(§12) Analysis of the samples was performed on a high performance liquid chromatography-tandem mass spectrometry (LC/MS) system consisting of a Thermo TSQ Quantum Ultra mass spectrometer, an H-ESI ion source, a CTC-HTS Pal autosampler, and an Agilent LC Pump.
(§13) Mobile phase A consisted of purified water containing 0.01% formic acid. Mobile phase B consisted of acetonitrile containing 0.01% formic acid. The flow rate was 1 mL/min. The injection volume was 10 μL. Compounds were detected using the Thermo QuikQuan software which collects intensity data for all fragments related to the molecular weight of the test compound. After collection of the raw data, the software identifies and integrates the peak of the strongest intensity.
(§14) Each microsomal elimination rate, kmic, was based on a 4-point elimination curve tested in singlet. LC-MS/MS raw data for a reaction plate was returned as integrated analyte peak areas for the test compound and internal standard used in the quench solution for the reaction to enable use of analyte:internal standard peak area ratios (PARs) for all data comparisons. The reaction time point (e.g. 0, 5, 20 or 30 minutes) was plotted versus the natural logarithm of percent test compound remaining relative to 0 minutes (based on relative PAR).

[2] = Metabolic stability in liver microsomes, Method I, mouse; conditions: for microsomal CLint at 1 μM: male, CD-1, 1 μM test compound; for microsomal CLint: 1 μM test compound
Description: as §10, §11, §12, §13, §14

[3] = Metabolic stability in liver microsomes, Method I, human; conditions: 1 μM test compound; for microsomal CLint at 1 μM: pooled liver microsomes
Description: as §10, §11, §12, §13, §14

[4] = Metabolic stability in liver microsomes, Method II, rat; conditions: 1 μM test compound, NADPH + UDPGA; for microsomal CLint at 1 μM: male, Sprague-Dawley
Description: The in vitro metabolic stability assay was performed in a 96-deep-well plate with incubation at 37° C. 10 mM DMSO stock solution of the test compound was diluted 1:20 in acetonitrile, followed by an additional 1:10 dilution in 100 mM potassium phosphate buffer (KPi) to yield a final reaction concentration of 1 μM. […] 290 μL of cofactor solution (1.7 mM NADPH, 1.7 mM UDPGA, 3.4 mM MgCl in 100 mM KPi) was added to 200 μL of microsomal protein for a final volume of 490 μL. The reaction was initiated by adding 10 μL of the 50 μM test solution to 490 μL of microsomal protein for a final volume 500 μL enzyme-compound mixture.
UPLC mobile phase A: 0.25% formic acid in 5% methanol; mobile phase B: 0.25% formic acid in 95% water.

[5] = Metabolic stability in liver microsomes, Method II, human; conditions: 1 μM test compound, NADPH + UDPGA
Description: (§1) Determination of Metabolic Stability in Liver Microsomes—Method II
(§2) The in vitro metabolic stability assay was performed in a 96-deep-well plate with incubation at 37° C. 10 mM DMSO stock solution of the test compound was diluted 1:20 in acetonitrile, followed by an additional 1:10 dilution in 100 mM potassium phosphate buffer (KPi) to yield a final reaction concentration of 1 μM. Immediately prior to the start of the experiment, respective animal or human liver microsomes (male Sprague-dawley rat, male CD-1 mouse, or pooled human liver microsomes) were diluted in 100 mM KPi to 1.25 mg/mL liver microsomal protein. 290 μL of cofactor solution (1.7 mM NADPH, 1.7 mM UDPGA, 3.4 mM MgCl in 100 mM KPi) was added to 200 μL of microsomal protein for a final volume of 490 μL. The reaction was initiated by adding 10 μL of the 50 μM test solution to 490 μL of microsomal protein for a final volume 500 μL enzyme-compound mixture.
(§3) At 0, 5, 15 and 30 minute time points in the reaction, reaction aliquots (75 μL) were removed and the reactions were terminated by the addition of 50:50 acetonitrile/methanol solution (75 μL) containing a mass spectrometry internal standard (0.5 μM glyburide). The samples were centrifuged at 4000 RPM for 10 minutes. Supernatants (15 μL aliquots) were transferred to a new plate where each well contains 90 μL of deionized water. The supernatants solution were analyzed by UPLC/MS/MS for quantitation of parent remaining compound under multiple reactions monitoring mode (MRM) in positive mode. The percentage of compound remaining, relative to 0 minutes, was used to estimate in vitro elimination-rate constant (k) which was used to calculate in vitro metabolic clearance rates.
(§4) Analysis of the samples was performed on an ultra-performance liquid chromatography-tandem mass spectrometry (UPLC/MS/MS) system consisting of an AB Sciex Qtrap 5500 mass spectrometer, AB Sciex Turbo V ion source, Waters Acquity Sample Organizer, Waters Acquity Column manager, Waters Acquity Sample manager, and a Waters Acquity Binary Solvent Manager. Chromatographic separation of analyte and internal standard was achieved using a reverse phase C-18 column (50×2.1 mm, 1.7 μm, Acquity UPLC BEH C-18) with the following UPLC mobile phases and elution gradient: […]
(§5) UPLC mobile phase A: 0.25% formic acid in 5% methanol; mobile phase B: 0.25% formic acid in […].
(§6) The injection volume was 5 μL. Compounds were detected using Analyst 1.5.1 software which collects intensity data for all fragments related to the molecular weight of the test compound. After collection of the raw data, the software identifies and integrates the peak of the strongest intensity.
(§7) Each microsomal elimination rate, k, was based on a 4-point elimination curve tested in duplicates. LC-MS/MS raw data for a reaction plate was returned as integrated analyte peak areas for the test compound and internal standard used in the quench solution for the reaction to enable use of analyte:internal standard peak area ratios (PARs) for all data comparisons. The reaction time point (e.g. 0, 5, 15 and 30 minutes) was plotted versus the natural logarithm of percent test compound remaining relative to 0 minutes (based on relative PAR). The slope of this clearance plot, k, was used to calculate the in vitro half-life.
(§8) [formula] The intrinsic clearance value, CLint (expressed as μL/min/mg microsomal protein) calculation is shown below:
(§9) [formula] Where V=the incubation volume (mL) and M=the microsomal protein content in the incubation (mg)

[6] = Metabolic stability in liver microsomes, Method II, mouse; conditions: 1 μM test compound, NADPH + UDPGA
Description: as §1, §2, §3, §4, §5, §6, §7, §8, §9

Compound	microsomal CLint at 1 μM [1]	microsomal CLint at 1 μM [2]	microsomal CLint at 1 μM [3]	also measured
C[C@H](Nc1ncc(F)c(N2C(=O)OC[C@@H]2CF)n1)c1cn(-c2ccc(C(F)F)cc2)cn1 [434 as TFA salt]	–	–	–	microsomal CLint [2]: 10.7 µL/min/mg; microsomal CLint [3]: < 7.7 µL/min/mg; microsomal CLint [1]: 41 µL/min/mg; microsomal CLint [4]: 10.8 µL/min/mg
C[C@H](Nc1nccc(N2C(=O)OC[C@@H]2[C@H](C)F)n1)c1cn(-c2ccc(C(F)F)cc2)cn1 [456 as TFA salt]	–	–	–	microsomal CLint [3]: 16.8 µL/min/mg; microsomal CLint [1]: 44.7 µL/min/mg
C[C@H](Nc1nccc(N2C(=O)OC[C@@H]2CF)n1)c1cn(-c2ccc(F)cc2)cn1 [471 as TFA salt]	–	–	–	microsomal CLint [5]: < 7.7 µL/min/mg; microsomal CLint [6]: 14.8 µL/min/mg; microsomal CLint [4]: < 7.7 µL/min/mg
C[C@H](Nc1ncc(F)c(N2C(=O)OC[C@@H]2CF)n1)c1cn(-c2ccc(F)c(Cl)c2)cn1 [472 as TFA salt]	–	–	–	microsomal CLint [5]: < 7.7 µL/min/mg; microsomal CLint [6]: 45.6 µL/min/mg; microsomal CLint [4]: 12 µL/min/mg
C[C@H](Nc1nccc(N2C(=O)OC[C@@H]2CF)n1)c1cn(-c2ccc(Cl)c(F)c2)cn1 [473 as TFA salt]	–	–	–	microsomal CLint [2]: 17.7 µL/min/mg; microsomal CLint [3]: < 7.7 µL/min/mg; microsomal CLint [1]: 72.5 µL/min/mg; microsomal CLint [4]: 33.3 µL/min/mg
C[C@H](Nc1nccc(N2C(=O)OC[C@@H]2CF)n1)c1cn(-c2ccc(C(F)F)c(F)c2)cn1 [475 as TFA salt]	–	–	–	microsomal CLint [2]: 15.7 µL/min/mg; microsomal CLint [3]: < 7.7 µL/min/mg; microsomal CLint [1]: 54 µL/min/mg; microsomal CLint [4]: 16.2 µL/min/mg
C[C@H](Nc1nccc(N2C(=O)OC[C@@H]2[C@H](C)O)n1)c1ccc(CN2CCN(C)C(C)(C)C2)c(F)c1 [Example 48, (R)-3-(2-((S)-1-(3-fluoro-4-((3,3,4-trimethylpiperazin-1-yl)methyl)phenyl)ethylamino)pyrimidin-4-yl)-4-((S)-1-hydroxyethyl)oxazolidin-2-one]	49.1 µL/min/mg	173 µL/min/mg	121 µL/min/mg	–
C[C@H](Nc1nccc(N2C(=O)OC[C@@H]2[C@@H](C)N)n1)c1cnc(-c2ccc(Cl)cc2)s1 [Example 380, (S)-4-((R)-1-aminoethyl)-3-(2-(((S)-1-(2-(4-chlorophenyl)thiazol-5-yl)ethyl)amino)pyrimidin-4-yl)oxazolidin-2-one]	42.9 µL/min/mg	51 µL/min/mg	31.1 µL/min/mg	microsomal CLint at 1 μM [4]: 30.2 µL/min/mg
C[C@H](Nc1nccc(N2C(=O)OC[C@@H]2[C@H](C)F)n1)c1cn(-c2ccc(F)cc2)cn1 [Example 401, (R)-4-((S)-1-fluoroethyl)-3-(2-(((S)-1-(1-(4-fluorophenyl)-1H-imidazol-4-yl)ethyl)amino)pyrimidin-4-yl)oxazolidin-2-one]	30.4 µL/min/mg	33.1 µL/min/mg	< 7.7 µL/min/mg	microsomal CLint at 1 μM [4]: 92.4 µL/min/mg
C[C@H](Nc1nccc(N2C(=O)OC[C@@H]2CF)n1)c1cn(-c2ccc(Cl)cc2)cn1 [Example 404, (R)-3-(2-(((S)-1-(1-(4-chlorophenyl)-1H-imidazol-4-yl)ethyl)amino)pyrimidin-4-yl)-4-(fluoromethyl)oxazolidin-2-one]	44.6 µL/min/mg	18.7 µL/min/mg	< 7.7 µL/min/mg	microsomal CLint at 1 μM [4]: 75.4 µL/min/mg
C[C@H](Nc1nccc(N2C(=O)OC[C@@H]2[C@H](C)F)n1)c1ncc(-c2ccnc(C(F)(F)F)c2)cc1F [Example 463, (R)-3-(2-(((S)-1-(5-fluoro-2′-(trifluoromethyl)-[3,4′-bipyridin]-6-yl)ethyl)amino)pyrimidin-4-yl)-4-((S)-1-fluoroethyl)oxazolidin-2-one]	50.8 µL/min/mg	35.5 µL/min/mg	28.3 µL/min/mg	microsomal CLint at 1 μM [4]: 49.8 µL/min/mg
C[C@H](Nc1nccc(N2C(=O)OC[C@@H]2[C@H](C)F)n1)c1ncc(-c2cccc(C(F)(F)F)c2F)cn1 [Example 467, (R)-3-(2-(((S)-1-(5-(2-fluoro-3-(trifluoromethyl)phenyl)pyrimidin-2-yl)ethyl)amino)pyrimidin-4-yl)-4-((S)-1-fluoroethyl)oxazolidin-2-one]	75.6 µL/min/mg	275 µL/min/mg	53.3 µL/min/mg	microsomal CLint at 1 μM [4]: 85.4 µL/min/mg
C[C@H](Nc1nccc(N2C(=O)OC[C@@H]2[C@H](C)F)n1)c1ccc(-c2ccnc(C(F)(F)F)c2)cn1 [Example 468, (R)-4-((S)-1-fluoroethyl)-3-(2-(((S)-1-(2′-(trifluoromethyl)-[3,4′-bipyridin]-6-yl)ethyl)amino)pyrimidin-4-yl)oxazolidin-2-one]	30.5 µL/min/mg	28.9 µL/min/mg	70.1 µL/min/mg	–
Cc1cc(-c2cnc([C@H](C)Nc3nccc(N4C(=O)OC[C@@H]4[C@H](C)F)n3)nc2)ccc1F [Example 469, (R)-3-(2-(((S)-1-(5-(4-fluoro-3-methylphenyl)pyrimidin-2-yl)ethyl)amino)pyrimidin-4-yl)-4-((S)-1-fluoroethyl)oxazolidin-2-one]	132 µL/min/mg	–	–	–
Cc1cc([C@H](C)Nc2ncc(F)c(N3C(=O)OC[C@@H]3[C@H](C)F)n2)ncc1-c1ccnc(C(F)(F)F)c1 [Example 470, (R)-3-(5-fluoro-2-(((S)-1-(4-methyl-2′-(trifluoromethyl)-[3,4′-bipyridin]-6-yl)ethyl)amino)pyrimidin-4-yl)-4-((S)-1-fluoroethyl)oxazolidin-2-one]	52.8 µL/min/mg	47.3 µL/min/mg	83.6 µL/min/mg	–
C[C@H](Nc1ncc(F)c(N2C(=O)OC[C@@H]2CF)n1)c1ncc(-c2ccc(Cl)cc2)o1 [Example 480, (R)-3-(2-(((S)-1-(5-(4-chlorophenyl)oxazol-2-yl)ethyl)amino)-5-fluoropyrimidin-4-yl)-4-(fluoromethyl)oxazolidin-2-one]	65.2 µL/min/mg	51.5 µL/min/mg	35.6 µL/min/mg	–

The next lines start with results.

microsomal CLint at 1 μM [1]	microsomal CLint at 1 μM [2]	microsomal CLint at 1 μM [3]	Compound	also measured
69.4 µL/min/mg	–	–	Cc1ccc(-c2noc(C(C)Nc3ncc(F)c(N4C(=O)OC[C@@H]4[C@@H](C)O)n3)n2)cc1F (single isomer, unassigned) [Example 122]	–
68.8 µL/min/mg	–	–	CC(Nc1nccc(N2C(=O)OC[C@@H]2[C@@H](C)O)n1)c1nc(-c2ccc3c(c2)OC(F)(F)O3)no1 (single isomer, unassigned) [Example 169]	Rat microsomal stability CLint [1]: 60.93 µL/min/mg
48.5 µL/min/mg	–	–	CC(Nc1nccc(N2C(=O)OC[C@@H]2[C@@H](C)O)n1)c1nc(-c2ccc(C(F)(F)F)cc2)no1 (single isomer, unassigned) [Example 174]	–
–	56.3 µL/min/mg	39.8 µL/min/mg	CC(Nc1nccc(N2C(=O)OC[C@@H]2[C@@H](C)O)n1)c1nc(-c2ccc(C(F)(F)F)cc2)no1 (single isomer, unassigned) [Example 175]	Rat microsomal stability CLint [1]: 50.51 µL/min/mg
56.6 µL/min/mg	–	–	CC(Nc1nccc(N2C(=O)OC[C@@H]2[C@@H](C)O)n1)c1nc(-c2ccc(OC(F)(F)F)cc2)no1 (single isomer, unassigned) [Example 181]	–
58.4 µL/min/mg	63.1 µL/min/mg	–	C[C@H](Nc1nccc(N2C(=O)OC[C@@H]2[C@@H](C)O)n1)c1ccc(-c2ccnc(C(F)(F)F)c2)cn1 [Example 55, (R)-4-((R)-1-hydroxyethyl)-3-(2-(((S)-1-(2′-(trifluoromethyl)-[3,4′-bipyridin]-6-yl)ethyl)amino)pyrimidin-4-yl)oxazolidin-2-one]	–
34.6 µL/min/mg	67.7 µL/min/mg	66.4 µL/min/mg	Cc1cc(-c2ccnc(C(F)(F)F)c2)cnc1[C@H](C)Nc1nccc(N2C(=O)OC[C@@H]2[C@@H](C)O)n1 [Example 61, (R)-4-((R)-1-hydroxyethyl)-3-(2-(((S)-1-(5-methyl-2′-(trifluoromethyl)-[3,4′-bipyridin]-6-yl)ethyl)amino)pyrimidin-4-yl)oxazolidin-2-one]	–
